Compound in one assay: C[C@@H](Oc1cc(-c2cnn(C3CCNCC3)c2)cnc1N)c1c(Cl)ccc(F)c1Cl [CRIZOTINIB]
In words: surviving fraction relative to DMSO-only wells; higher = less growth inhibition. Particulars: exposure time: 5 days. The essentials: (§1)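 In 384-well plates, 250–500 log-phase tumour cells per well were given 24 hours before five days of continuous exposure to inhibitors at 0.5, 1, 5, 10, 50, 100, 500 and 1000 nM. Surviving fraction is luminescence from CellTiter-Glo, normalised to the median of wells containing DMSO alone. Reading took place after 10 minutes at room temperature.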

Compound in another assay: C[C@]12CC[C@H](O)CC1=CC[C@@H]1[C@@H]2CC[C@]2(C)C(c3cccnc3)=CC[C@@H]12 [ABIRATERONE]
The description is as above. The note with it: exposure time: 5 days. The essentials: as §1

± gives the standard deviation of the averaged measurements.

Consider T47D BREAST, for which the surviving fraction with CRIZOTINIB (0.5 nM) was found to be 1.07 ± 0.024; with CRIZOTINIB (1 nM) it was 1.08 ± 0.079; with CRIZOTINIB (5 nM) it was 1.1 ± 0.043; with CRIZOTINIB (10 nM) it was 1.08 ± 0.03; with CRIZOTINIB (50 nM) it was 1.07 ± 0.045; with CRIZOTINIB (100 nM), 1.099 ± 0.0093. The surviving fraction with CRIZOTINIB (500 nM) was 1.03 ± 0.038; with CRIZOTINIB (1000 nM), 0.93 ± 0.041; in the assay with ABIRATERONE (0.5 nM) it was 1.04 ± 0.048; in the assay with ABIRATERONE (1 nM), 1.08 ± 0.031; in the assay with ABIRATERONE (5 nM), 1.05 ± 0.018; with ABIRATERONE (10 nM), 1.08 ± 0.063. Also, the surviving fraction with ABIRATERONE (50 nM) was 1.18 ± 0.068; in the assay with ABIRATERONE (100 nM), 1.14 ± 0.022; in the assay with ABIRATERONE (500 nM) it was 1.1 ± 0.069; with ABIRATERONE (1000 nM), 1.13 ± 0.051.
For SG28 HEADNECK, the surviving fraction with CRIZOTINIB (0.5 nM) amounted to 1.06 ± 0.052; with CRIZOTINIB (1 nM), 1.18 ± 0.1; with CRIZOTINIB (10 nM) it was 1.22 ± 0.055; with CRIZOTINIB (50 nM), 1.08 ± 0.025; in the assay with CRIZOTINIB (100 nM), 1.15 ± 0.12; with CRIZOTINIB (500 nM) it was 1.044 ± 0.0092. Besides, the surviving fraction with ABIRATERONE (0.5 nM) worked out at 1.11 ± 0.046; with ABIRATERONE (1 nM), 1.08 ± 0.11; with ABIRATERONE (5 nM) it was 1.02 ± 0.048; with ABIRATERONE (10 nM) it was 1.04 ± 0.12; with ABIRATERONE (50 nM), 1.02 ± 0.18; with ABIRATERONE (100 nM), 1.07 ± 0.043. For the same test system, the surviving fraction stood at 1.01 ± 0.066 in the assay with ABIRATERONE (500 nM) and 1.04 ± 0.13 with ABIRATERONE (1000 nM).
Regarding SUM159 BREAST, the surviving fraction with CRIZOTINIB (0.5 nM) stood at 1.11 ± 0.03; with CRIZOTINIB (1 nM), 1.12 ± 0.056; with CRIZOTINIB (5 nM), 1.12 ± 0.039; with CRIZOTINIB (10 nM) it was 1.11 ± 0.022; with CRIZOTINIB (50 nM), 1.09 ± 0.011; with CRIZOTINIB (100 nM) it was 1.103 ± 0.004. Besides, the surviving fraction with CRIZOTINIB (500 nM) stood at 1.11 ± 0.013; with ABIRATERONE (0.5 nM), 1.11 ± 0.053; in the assay with ABIRATERONE (1 nM) it was 0.994 ± 0.16; with ABIRATERONE (5 nM), 0.99 ± 0.17; with ABIRATERONE (10 nM) it was 0.952 ± 0.21; in the assay with ABIRATERONE (50 nM), 1.11 ± 0.05. In addition, the surviving fraction is 0.963 ± 0.24 with ABIRATERONE (100 nM), 1.03 ± 0.15 in the assay with ABIRATERONE (500 nM) and 0.961 ± 0.2 in the assay with ABIRATERONE (1000 nM).
Consider MDAMB134 BREAST, for which the surviving fraction came out at 1.01 ± 0.028 with CRIZOTINIB (1 nM); 0.93 ± 0.068 in the assay with CRIZOTINIB (5 nM); 1.06 ± 0.04 with CRIZOTINIB (10 nM); 0.91 ± 0.0085 in the assay with CRIZOTINIB (50 nM); 1.05 ± 0.019 with CRIZOTINIB (500 nM); 0.947 ± 0.026 in the assay with CRIZOTINIB (1000 nM). In addition, the surviving fraction with ABIRATERONE (0.5 nM) amounted to 1.12 ± 0.043; with ABIRATERONE (1 nM) it was 0.896 ± 0.18; with ABIRATERONE (5 nM), 1.36 ± 0.096; with ABIRATERONE (10 nM), 0.943 ± 0.063; with ABIRATERONE (50 nM) it was 1.12 ± 0.049; in the assay with ABIRATERONE (100 nM) it was 1.15 ± 0.37. Besides, the surviving fraction with ABIRATERONE (500 nM) is 0.927 ± 0.13; with ABIRATERONE (1000 nM), 0.965 ± 0.098.
Consider SG27 HEADNECK, for which the surviving fraction with CRIZOTINIB (0.5 nM) was determined as 1.25 ± 0.084; with CRIZOTINIB (1 nM) it was 1.09 ± 0.11; with CRIZOTINIB (10 nM), 1.14 ± 0.022; with CRIZOTINIB (50 nM), 1.12 ± 0.17; in the assay with CRIZOTINIB (100 nM), 1.11 ± 0.091; with CRIZOTINIB (500 nM), 1.18 ± 0.13. In addition, the surviving fraction with ABIRATERONE (0.5 nM) is 1.09 ± 0.064; with ABIRATERONE (1 nM), 0.971 ± 0.11; in the assay with ABIRATERONE (5 nM), 1.05 ± 0.067; in the assay with ABIRATERONE (10 nM) it was 0.927 ± 0.039; with ABIRATERONE (50 nM) it was 0.867 ± 0.066; with ABIRATERONE (100 nM) it was 0.997 ± 0.08. Also, the surviving fraction with ABIRATERONE (500 nM) was found to be 0.957 ± 0.14; with ABIRATERONE (1000 nM), 0.985 ± 0.07.
As to 93VU HEADNECK, the surviving fraction with CRIZOTINIB (0.5 nM) worked out at 1.08 ± 0.14; with CRIZOTINIB (1 nM), 1.09 ± 0.072; with CRIZOTINIB (5 nM), 1.08 ± 0.12; with CRIZOTINIB (10 nM) it was 1.16 ± 0.037; with CRIZOTINIB (50 nM), 1.14 ± 0.14; with CRIZOTINIB (100 nM), 1.18 ± 0.081. For the same test system, the surviving fraction with CRIZOTINIB (1000 nM) was found to be 0.853 ± 0.038; in the assay with ABIRATERONE (0.5 nM), 1.2 ± 0.027; with ABIRATERONE (1 nM), 1.15 ± 0.12; with ABIRATERONE (5 nM) it was 1.12 ± 0.031; with ABIRATERONE (10 nM), 1.2 ± 0.024; with ABIRATERONE (50 nM), 1.32 ± 0.038. Besides, the surviving fraction came to 1.19 ± 0.056 with ABIRATERONE (100 nM), 1.17 ± 0.12 with ABIRATERONE (500 nM) and 1.11 ± 0.12 in the assay with ABIRATERONE (1000 nM).
Consider HCC202 BREAST, for which the surviving fraction is 1.38 ± 0.033 with CRIZOTINIB (0.5 nM); 1.24 ± 0.47 with CRIZOTINIB (5 nM); 1.05 ± 0.069 with CRIZOTINIB (10 nM); 1.13 ± 0.018 with CRIZOTINIB (50 nM); 1.25 ± 0.37 with CRIZOTINIB (100 nM); 1.12 ± 0.12 with CRIZOTINIB (500 nM). The surviving fraction with CRIZOTINIB (1000 nM) came out at 1.246 ± 0.0085; with ABIRATERONE (0.5 nM) it was 1.062 ± 0.0076; with ABIRATERONE (1 nM), 1.28 ± 0.2; with ABIRATERONE (5 nM), 1.16 ± 0.15; in the assay with ABIRATERONE (10 nM) it was 1.32 ± 0.44; in the assay with ABIRATERONE (50 nM), 1.27 ± 0.073. For the same test system, the surviving fraction with ABIRATERONE (100 nM) came to 1.23 ± 0.031; with ABIRATERONE (500 nM), 0.991 ± 0.13; with ABIRATERONE (1000 nM), 0.86 ± 0.28.
As for S68 BREAST, the surviving fraction with CRIZOTINIB (0.5 nM) was 0.895 ± 0.078; with CRIZOTINIB (1 nM), 1.16 ± 0.3; with CRIZOTINIB (5 nM), 1.04 ± 0.55; in the assay with CRIZOTINIB (10 nM), 0.981 ± 0.1; in the assay with CRIZOTINIB (50 nM), 1.17 ± 0.26; with CRIZOTINIB (500 nM), 0.417 ± 0.11. The surviving fraction in the assay with CRIZOTINIB (1000 nM) is 0.361 ± 0.049; with ABIRATERONE (0.5 nM), 0.939 ± 0.22; in the assay with ABIRATERONE (1 nM), 0.785 ± 0.063; with ABIRATERONE (5 nM) it was 1.21 ± 0.21; in the assay with ABIRATERONE (10 nM), 0.925 ± 0.098; in the assay with ABIRATERONE (50 nM), 1.17 ± 0.021. The values for the surviving fraction with ABIRATERONE (100 nM), in the assay with ABIRATERONE (500 nM) and in the assay with ABIRATERONE (1000 nM) were 1.17 ± 0.092, 0.942 ± 0.15 and 0.878 ± 0.17, respectively.
With PCI30 HEADNECK, the surviving fraction in the assay with CRIZOTINIB (0.5 nM) was 1.07 ± 0.075; with CRIZOTINIB (1 nM) it was 1.12 ± 0.058; in the assay with CRIZOTINIB (5 nM), 1.02 ± 0.028; with CRIZOTINIB (10 nM) it was 1.1 ± 0.072; with CRIZOTINIB (50 nM) it was 1.03 ± 0.024; with CRIZOTINIB (500 nM), 0.759 ± 0.055. The surviving fraction with CRIZOTINIB (1000 nM) turned out to be 0.6787 ± 0.0025; with ABIRATERONE (0.5 nM), 1.12 ± 0.065; with ABIRATERONE (1 nM), 1.03 ± 0.091; with ABIRATERONE (5 nM), 1.11 ± 0.018; with ABIRATERONE (10 nM) it was 1.12 ± 0.068; in the assay with ABIRATERONE (50 nM) it was 1.18 ± 0.071. Also, the surviving fraction in the assay with ABIRATERONE (100 nM) was 1.04 ± 0.013; with ABIRATERONE (500 nM) it was 1.04 ± 0.11; with ABIRATERONE (1000 nM), 1.03 ± 0.065.

For the origin of these results see the supplement of paper PMC6045584.
